Assay results from article PMC8342319, “Predicting blood-to-plasma concentration ratios of drugs from chemical structures and volumes of distribution in humans” (Molecular Diversity, 2021).
Read-outs that look alike come from different tables or passages of the source.

Key:
[1] = human
[2] = human, cited from earlier work
[3] = human, intravenous, cited from earlier work
[4] = intravenous, median if multiple values were reported, ref numbers in Table S1
[5] = median if multiple values were reported, ref numbers in Table S1
[6] = intravenous, median if multiple values reported, Reference of Table S1
[7] = median if multiple values reported, Reference of Table S1

Nc1nc(O)c2ncn(COC(CO)CO)c2n1 [Ganciclovir]
in vivo MRT_(hr)_Human [1]: 3.623 h
in vivo Vd_(L/kg)_Human [2, 4]: 1.000 L/kg
in vivo CL_(L/hr/kg)_Human [3, 5]: 0.240 L/h/kg

CN1C2CCCC1CC(NC(=O)c1nn(C)c3ccccc13)C2 (stereo not drawn) [Granisetron]
in vivo MRT_(hr)_Human [1]: 6.777 h
in vivo Vd_(L/kg)_Human [2, 4]: 3.700 L/kg
in vivo CL_(L/hr/kg)_Human [3, 5]: 0.546 L/h/kg

CC(C)(C)NC(=O)[C@@H]1CN(Cc2cccnc2)CCN1C[C@@H](O)C[C@@H](Cc1ccccc1)C(=O)N[C@H]1c2ccccc2C[C@H]1O [Indinavir]
in vivo MRT_(hr)_Human [1]: 0.759 h
in vivo Vd_(L/kg)_Human [2, 4]: 0.820 L/kg
in vivo CL_(L/hr/kg)_Human [3, 5]: 1.080 L/h/kg

C[C@H]1COc2c(N3CCN(C)CC3)c(F)cc3c(=O)c(C(=O)O)cn1c23 [Levofloxacin]
in vivo MRT_(hr)_Human [1]: 37.281 h
in vivo Vd_(L/kg)_Human [2, 4]: 4.250 L/kg
in vivo CL_(L/hr/kg)_Human [3, 5]: 0.114 L/h/kg

CCCCc1nc(Cl)c(CO)n1Cc1ccc(-c2ccccc2-c2nn[nH]n2)cc1 [Losartan]
in vivo MRT_(hr)_Human [1]: 0.752 h
in vivo Vd_(L/kg)_Human [2, 4]: 0.370 L/kg
in vivo CL_(L/hr/kg)_Human [3, 5]: 0.489 L/h/kg

CC(C)Oc1ccccc1N1CCN(Cc2cccc(C(=O)N3CCCCC3)c2)CC1 [Mazapertine]
in vivo MRT_(hr)_Human [1]: 4.160 h
in vivo Vd_(L/kg)_Human [2, 4]: 1.540 L/kg
in vivo CL_(L/hr/kg)_Human [3, 5]: 0.370 L/h/kg

CCN(CC)CCNC(=O)c1cc(Cl)c(N)cc1OC [Metoclopramide]
in vivo MRT_(hr)_Human [1]: 9.357 h
in vivo Vd_(L/kg)_Human [2, 4]: 3.200 L/kg
in vivo CL_(L/hr/kg)_Human [3, 5]: 0.342 L/h/kg

Cc1ccccc1N1C(=O)c2cc(S(N)(=O)=O)c(Cl)cc2NC1C (stereo not drawn) [Metolazone]
in vivo MRT_(hr)_Human [1]: 19.048 h
in vivo Vd_(L/kg)_Human [2, 4]: 1.600 L/kg
in vivo CL_(L/hr/kg)_Human [3, 5]: 0.084 L/h/kg

Cc1ncc([N+](=O)[O-])n1CCO [Metronidazole]
in vivo MRT_(hr)_Human [1]: 7.843 h
in vivo Vd_(L/kg)_Human [2, 4]: 0.400 L/kg
in vivo CL_(L/hr/kg)_Human [3, 5]: 0.051 L/h/kg

CC(C)(O)c1ccccc1CC[C@@H](SCC1(CC(=O)O)CC1)c1cccc(/C=C/c2ccc3ccc(Cl)cc3n2)c1 [Montelukast]
in vivo MRT_(hr)_Human [1]: 3.676 h
in vivo Vd_(L/kg)_Human [2, 4]: 0.150 L/kg
in vivo CL_(L/hr/kg)_Human [3, 5]: 0.041 L/h/kg

COCCOC(=O)C1=C(C)NC(C)=C(C(=O)OC(C)C)C1c1cccc([N+](=O)[O-])c1 (stereo not drawn) [Nimodipine]
in vivo MRT_(hr)_Human [1]: 1.111 h
in vivo Vd_(L/kg)_Human [2, 4]: 1.000 L/kg

COC(=O)C1=C(C)NC(C)=C(C(=O)OCC(C)C)C1c1ccccc1[N+](=O)[O-] (stereo not drawn) [Nisoldipine]
in vivo MRT_(hr)_Human [1]: 6.111 h
in vivo Vd_(L/kg)_Human [2, 4]: 5.500 L/kg
in vivo CL_(L/hr/kg)_Human [3, 5]: 0.900 L/h/kg

O=C1CN=C(c2ccccc2)c2cc([N+](=O)[O-])ccc2N1 [Nitrazepam]
in vivo MRT_(hr)_Human [1]: 32.946 h
in vivo Vd_(L/kg)_Human ([2]; in vivo, iv): 1.700 L/kg
in vivo CL_(L/hr/kg)_Human [3, 5]: 0.052 L/h/kg

CNCCC=C1c2ccccc2CCc2ccccc21 [Nortriptyline]
in vivo MRT_(hr)_Human [1]: 36.667 h
in vivo Vd_(L/kg)_Human [2, 4]: 22.000 L/kg
in vivo CL_(L/hr/kg)_Human [3, 5]: 0.516 L/h/kg

CC1COc2c(N3CCN(C)CC3)c(F)cc3c(=O)c(C(=O)O)cn1c23 (stereo not drawn) [Ofloxacin]
in vivo MRT_(hr)_Human [1]: 10.667 h
in vivo Vd_(L/kg)_Human [2, 4]: 1.600 L/kg
in vivo CL_(L/hr/kg)_Human [3, 5]: 0.150 L/h/kg

Cc1nccn1CC1CCc2c(c3ccccc3n2C)C1=O (stereo not drawn) [Ondansetron]
in vivo MRT_(hr)_Human [1]: 5.172 h
in vivo Vd_(L/kg)_Human [2, 4]: 1.800 L/kg
in vivo CL_(L/hr/kg)_Human [3, 5]: 0.354 L/h/kg

CCN1CCN(C(=O)N[C@@H](C(=O)N[C@@H]2C(=O)N3[C@@H]2SC(C)(C)[C@@H]3C(=O)O)c2ccccc2)C(=O)C1=O [Piperacillin]
in vivo MRT_(hr)_Human [1]: 1.125 h
in vivo Vd_(L/kg)_Human [2, 6]: 0.270 L/kg

O=C(c1ccc(OCCN2CCCCC2)cc1)c1c(-c2ccc(O)cc2)sc2cc(O)ccc12 [Raloxifene]
in vivo MRT_(hr)_Human [1]: 41.837 h
in vivo Vd_(L/kg)_Human [2, 6]: 36.900 L/kg

CCN1CCC[C@H]1CNC(=O)c1c(OC)ccc(Br)c1OC [Remoxipride]
in vivo MRT_(hr)_Human [1]: 6.373 h
in vivo Vd_(L/kg)_Human [2, 6]: 0.650 L/kg
in vivo CL_(L/hr/kg)_Human [3, 7]: 0.102 L/h/kg

O=C(O)CCCCO/N=C(/c1cccnc1)c1cccc(C(F)(F)F)c1 [Ridogrel]
in vivo MRT_(hr)_Human [1]: 6.825 h
in vivo Vd_(L/kg)_Human [2, 6]: 0.430 L/kg
in vivo CL_(L/hr/kg)_Human [3, 7]: 0.063 L/h/kg

CCN(CC)CCNC(=O)c1ccc(NS(C)(=O)=O)cc1 [Sematilide]
in vivo MRT_(hr)_Human [1]: 3.694 h
in vivo Vd_(L/kg)_Human [2, 6]: 0.820 L/kg
in vivo CL_(L/hr/kg)_Human [3, 7]: 0.222 L/h/kg

CCCc1nn(C)c2c(=O)[nH]c(-c3cc(S(=O)(=O)N4CCN(C)CC4)ccc3OCC)nc12 [Sildenafil]
in vivo MRT_(hr)_Human [1]: 2.564 h
in vivo Vd_(L/kg)_Human [2, 6]: 1.400 L/kg

CCCCNC(=O)NS(=O)(=O)c1ccc(C)cc1 [Tolbutamide]
in vivo MRT_(hr)_Human [1]: 9.524 h
in vivo Vd_(L/kg)_Human [2, 6]: 0.120 L/kg

CCN(C(C)=O)c1cccc(-c2ccnc3c(C#N)cnn23)c1 [Zaleplon]
in vivo MRT_(hr)_Human [1]: 1.354 h
in vivo Vd_(L/kg)_Human ([2]; in vivo, iv): 1.300 L/kg
